Laboratory results: patent US20100324060A1, “PHARMACEUTICAL COMPOSITIONS USEFUL FOR TREATING HCV” (Gilead Sciences, Inc., priority 2009, published 2010)

System: HCV genotype 1b replicon cells (Huh-luc)
Experiment: HCV 1b replicon combination study (luciferase, MacSynergy II analysis)
Type: cell-based
Conditions: for Interaction: combination of Compound 1 and Compound 2, MacSynergy II
Procedure: HCV genotype 1b replicon cells (Huh-luc) were obtained from Reblikon (Mainz, Germany). The replicon in these cells is designated I389luc-ubi-neo/NS3-3′/ET and encodes a selectable resistance marker (neomycin phosphotransferase) as well as the firefly luciferase reporter gene. Huh-luc cells were maintained in Dulbecco's Modified Eagle's Medium (DMEM; GIBCO, Carlsbad, Calif.) supplemented with 10% fetal bovine serum (FBS; Hyclone, Logan, Utah) and 0.5 mg/mL of G-418 (GIBCO). Cells were passaged twice a week and maintained at subconfluent levels.
Replicon cells were seeded in 96-well plates at a density of 5×10^3 cells per well in 100 μL of DMEM culture medium, excluding G-418. Compounds 1 and 2 were serially diluted 1:3 in 100% DMSO (Sigma). These serial dilutions were added to the cells at a 1:200 dilution to achieve a final concentration of 0.5% DMSO in a total volume of 200 μL. Plates were incubated at 37° C. for 3 days, after which culture media were removed and cells were lysed and assayed for luciferase activity using a commercial luciferase assay (Promega, Madison, Wis.). HCV replication levels in drug-treated samples were expressed as a percentage of those in untreated controls (defined as 100%), and data were fit to the logistic dose response equation y=a/(1+(x/b)c) using XLFit4 software (IDBS, Emeryville, Calif.). EC50 values were calculated from the resulting equations as described previously (Delaney, W. E., et al., Antimicrobial Agents Chemotherapy, 45(6):1705-1713 (2001)). Replicon cells were seeded in 96-well plates at a density of 5×10^3 cells per well in 100 μL of culture medium. Compounds 1 and 2 were serially diluted in 100% DMSO as described above and added in a matrix format to 96-well plates, achieving a defined set of different drug concentrations and ratios in a final volume of 200 μL and a final DMSO concentration of 0.5%. […] Cells were incubated for three days and analyzed for luciferase expression as indicated above. […]
The calculated volumes of surface deviations are expressed in nM^2%. […]

Structure (SMILES)	Interaction	Antagonism Volume (in combination with Compound 1, 3 days, mean ± SD of two or three independent experiments in triplicate) [nM^2]
Fc1ccccc1-c1nc2ccn(Cc3ccc(-c4ccc(C(F)(F)F)cc4C(F)(F)F)nn3)cc-2n1 [Compound 1, 5-({6-[2,4-bis(trifluoromethyl)phenyl]pyridazin-3-yl}methyl)-2-(2-fluorophenyl)-5H-imidazo[4,5-c]pyridine]	moderate synergistic interaction	–
CC(C)(C)NC(=O)N[C@H](C(=O)N1C[C@H]2[C@@H]([C@H]1C(=O)NC(CC1CCC1)C(=O)C(N)=O)C2(C)C)C(C)(C)C (stereo partly drawn) [Compound 2, (1R,2S,5S)-3-[N-(N-tert-Butylcarbamoyl)-3-methyl-L-valyl]-N-(2-cyclobutyl-1-oxamoylethyl)-6,6-dimethyl-3-azabicyclo[3.1.0]hexane-2-carboxamide]	Moderate synergy	−8.0 ± 13.6
